Reference: patent publication US20040266766A1, “Selective urokinase inhibitors” (Wilex AG, priority 2001, published 2004)
Where a name gives a salt, the structure may show the parent alone. Read-outs that look alike come from different tables or passages of the source.

Experiments:
[1] = target: T1, urokinase (uPA) (Homo sapiens, UniProt P00749); test: In vitro inhibition of urokinase (Ki according to Dixon, chromogenic substrate); type: biochemical
T1 construct: purchased Calbiochem-Novabiochem GmbH, Bad Soden, Germany
Experimental: (§1) In order to determine the inhibitory activity, 200 μl Tris buffer (0.05 mol/l containing the inhibitor, 0.154 mol/l NaCl, pH 8.0), 25 μl substrate (Pefachrome uPA, Pefachrome PL or Pefabloc TH in H2O; Pentapharm Ltd, Basle, Switzerland) and 50 μl urokinase (Calbiochem-Novabiochem GmbH, Bad Soden, Germany) or another appropriate protease e.g. plasmin, thrombin or FXa are incubated for 10 minutes at 30° C. After ca. 30 minutes and 30 cycles the absorption is determined at 405 nm by means of a microplate reader (Mediators PHL, Aureon Biosystems, Vienna, Austria). The Ki values were determined according to Dixon by linear regression using a computer program.

[2] = target: Plasmin (Homo sapiens, UniProt P00747); test: In vitro inhibition of plasmin (Ki according to Dixon); type: biochemical
Experimental: as §1

[3] = target: Thrombin (Homo sapiens, UniProt P00734); test: In vitro inhibition of thrombin (Ki according to Dixon); type: biochemical
Experimental: as §1

[4] = target: FXa (Homo sapiens, UniProt P00742); test: In vitro inhibition of FXa (Ki according to Dixon); type: biochemical
Experimental: as §1

[5] = target: PK (Homo sapiens, UniProt P03952); test: In vitro inhibition of PK (Ki); type: biochemical; conditions: summary table
Experimental: as §1

[6] = test system: Caco-2 cell monolayers; test: Caco-assay: transport across Caco-2 cell monolayers; type: in vitro ADME, human; conditions: for % amount in the basolateral compartment: 10 μg/ml apical, four hours
Experimental: Transport of the compounds WX-508, WXC-316, WXC-318, WXC-324, WXC-340, WX-532, WX-538, WX-550 and WX-582 across Caco-2 cell monolayers was investigated. In this experiment the bioavailability of the said compounds after oral administration was assessed.
Caco-2-cells (American Type Culture Collection, Rockville, Md., USA) were cultured in Dulbecco's modified Eagle medium (DMEM) (Life Technologies, Gibco BRL, UK) containing 10% vol/vol heat-denatured foetal calf serum (FCS), 1% vol/vol non-essential amino acids, 160 U/ml benzylpenicillin and 100 U/ml streptomycin (Sigma Chemical, St. Louis, Mo., USA). The cells are kept at 37° C. in an atmosphere comprising 95% air and 5% CO2 at 90% relative air humidity. The cells are cultured in […] culture flasks, the medium being replaced every second day and the cells are trypsinized once per week.
For the transport investigations the Caco-2 cells are cultured on porous polycarbonate filter membranes having a pore size of 0.4 μm and a surface of 4.7 cm^2 in clusters of 6 wells (Costar Transwell, Badhoevedorp, Netherlands). The cells are inoculated on each filter at an initial density of 10^4 cells/cm^2. These cells are kept at 37° C. in one of the atmospheres described above. The medium is replaced every second day for a period of three weeks.
On the day of the transport experiment the culture medium was replaced by the same volume of Hank's balanced saline solution (HBSS) buffered with 30 mM HEPES at pH 7.2 (transport medium) and the cells are allowed to equilibrate for 1 hour. Afterwards the apical medium is replaced by 1.5 ml of a solution containing one of the compounds in HBSS/HEPES (10 μg/ml). Cell monolayers are incubated for four hours. Samples of the apical and basolateral compartments are removed at the end of the experiments and used to quantitatively determine the transport of the respective compounds.
The transepithelial electric resistance (TEER) is measured before and after equilibration using a Milicell ERS meter which was connected to a pair of electrodes in order to ensure the integrity of the monolayers formed on the filters. TEER is also measured at the end of the experiments to ensure that the cell monolayer remains coherent.
Samples are taken from the apical and the basolateral side and analysed in a beta counter after adding a scintillation cocktail. All experiments were carried out three times.

[7] = Oral bioavailability and plasma kinetics in mice (serum concentration); type: in vivo, Balb/c mice; conditions: mouse; for concentration at 20 min / concentration at 40 min / concentration at 60 min: female, Balb/c, serum, po; for concentration at 20 min: sample at 20 minutes; for concentration at 40 min: sample at 40 minutes; for concentration at 60 min: sample at 60 minutes; for c in the serum 1st analysis / c in the serum 2nd analysis: 10 mg/kg i.v.
[8] = list of test substances of Example 17, read-out: Ki human uPA
[9] = summary table, read-out: Ki uPA
[10] = 30 mg/kg, 30 mg/kg oral, read-out: c in the serum 1st analysis
[11] = 30 mg/kg, 30 mg/kg oral, read-out: c in the serum 2nd analysis
[12] = 300 mg/kg, 300 mg/kg oral, read-out: c in the serum 1st analysis
[13] = 300 mg/kg, 300 mg/kg oral, read-out: c in the serum 2nd analysis

Plasmin, sequence (P00747 581-810 limits assumed, species assumed): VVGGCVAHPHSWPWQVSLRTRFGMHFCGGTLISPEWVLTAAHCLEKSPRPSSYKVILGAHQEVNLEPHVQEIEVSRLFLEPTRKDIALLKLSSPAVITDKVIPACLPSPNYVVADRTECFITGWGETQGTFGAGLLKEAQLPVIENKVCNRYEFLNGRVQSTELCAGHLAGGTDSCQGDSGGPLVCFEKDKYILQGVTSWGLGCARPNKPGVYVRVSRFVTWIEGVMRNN
Plasmin, sequence (P00747 97-580 partner limits assumed, species assumed): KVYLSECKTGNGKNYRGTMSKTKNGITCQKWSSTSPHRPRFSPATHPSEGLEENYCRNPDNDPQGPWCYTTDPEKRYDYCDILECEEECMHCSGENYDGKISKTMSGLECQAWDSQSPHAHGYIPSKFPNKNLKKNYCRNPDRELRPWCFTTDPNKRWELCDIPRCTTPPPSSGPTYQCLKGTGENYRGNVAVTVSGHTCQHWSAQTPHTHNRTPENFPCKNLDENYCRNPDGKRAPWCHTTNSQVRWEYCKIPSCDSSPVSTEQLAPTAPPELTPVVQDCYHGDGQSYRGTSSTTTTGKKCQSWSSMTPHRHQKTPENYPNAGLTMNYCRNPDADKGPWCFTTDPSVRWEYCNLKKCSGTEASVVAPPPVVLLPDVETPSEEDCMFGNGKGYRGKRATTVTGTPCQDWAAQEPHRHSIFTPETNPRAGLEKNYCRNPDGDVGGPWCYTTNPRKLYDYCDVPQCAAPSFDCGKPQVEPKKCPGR
PK, sequence (P03952 20-638): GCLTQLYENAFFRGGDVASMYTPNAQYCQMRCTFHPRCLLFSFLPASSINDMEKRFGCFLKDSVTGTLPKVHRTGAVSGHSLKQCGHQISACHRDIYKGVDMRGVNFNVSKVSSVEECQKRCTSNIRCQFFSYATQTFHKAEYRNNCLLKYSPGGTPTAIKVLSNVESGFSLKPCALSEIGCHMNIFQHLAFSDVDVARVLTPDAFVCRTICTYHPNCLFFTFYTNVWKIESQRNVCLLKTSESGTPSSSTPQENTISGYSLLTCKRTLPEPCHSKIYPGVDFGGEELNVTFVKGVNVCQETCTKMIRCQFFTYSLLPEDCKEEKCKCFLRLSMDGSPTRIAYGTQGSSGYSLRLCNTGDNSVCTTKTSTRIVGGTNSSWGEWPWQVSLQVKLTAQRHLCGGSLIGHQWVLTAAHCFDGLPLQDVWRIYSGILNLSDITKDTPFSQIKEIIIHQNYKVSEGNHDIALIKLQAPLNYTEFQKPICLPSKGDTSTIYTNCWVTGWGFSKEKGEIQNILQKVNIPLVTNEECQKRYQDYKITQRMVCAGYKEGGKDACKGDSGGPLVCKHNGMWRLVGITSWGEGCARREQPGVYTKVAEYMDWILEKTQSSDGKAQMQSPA
FXa, sequence (P00742 235-488 limits assumed): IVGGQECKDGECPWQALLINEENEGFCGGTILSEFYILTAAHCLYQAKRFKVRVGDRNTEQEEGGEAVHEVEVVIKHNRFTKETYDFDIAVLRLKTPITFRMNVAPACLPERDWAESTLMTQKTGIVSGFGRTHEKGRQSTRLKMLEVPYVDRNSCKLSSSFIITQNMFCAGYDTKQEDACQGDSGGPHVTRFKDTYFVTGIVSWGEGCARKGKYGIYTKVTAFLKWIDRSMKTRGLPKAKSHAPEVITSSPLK
FXa, sequence (P00742 41-179 partner limits assumed): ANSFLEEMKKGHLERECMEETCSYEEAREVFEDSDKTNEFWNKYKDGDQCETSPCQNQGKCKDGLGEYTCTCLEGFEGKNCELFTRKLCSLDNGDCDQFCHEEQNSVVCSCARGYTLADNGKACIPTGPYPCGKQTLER

N=C(N)Nc1ccc(CNC(=O)CNC(=O)C(CO)NS(=O)(=O)Cc2cccc([N+](=O)[O-])c2)cc1 (stereo not drawn) [WX-C316, 3-Nitrobenzyl-sulfonyl-(D)-Ser-Gly-(4-guanidinobenzyl)amide hydrochloride]
Ki [1, 8]: 90 nM | Ki ([1]; read-out: Ki uPA): 90 nM | Ki [1, 9]: 90 nM | Ki Plasmin [2]: no inh. at 100 μM *) | Ki Plasmin ([2]; summary table): no inh. at 100 μM *) | Ki Thrombin [3]: no inh. at 100 μM *) | Ki Thrombin ([3]; summary table): no inh. at 100 μM *) | Ki [4]: 32400 nM | Ki [5]: 875000 nM | % amount in the basolateral compartment ([6]; first value column): 0.2% | % amount in the basolateral compartment ([6]; second value column): 0.2% | % amount in the basolateral compartment ([6]; third value column): 3.6% | Caco-2 assay % basolateral ([6]; first series, first value): 0.2% | Caco-2 assay % basolateral ([6]; first series, second value): 0.2% | Caco-2 assay % basolateral ([6]; first series, third value): 3.4% | Caco-2 assay % basolateral ([6]; second series, first value): 0.1% | Caco-2 assay % basolateral ([6]; second series, second value): 0.1% | Caco-2 assay % basolateral ([6]; second series, third value): 3.6% | concentration at 20 min [7, 10]: 500 ng/mL | concentration at 20 min [7, 11]: 600 ng/mL | concentration at 40 min [7, 10]: 5900 ng/mL | concentration at 40 min [7, 11]: 7100 ng/mL | concentration at 60 min [7, 10]: 400 ng/mL | concentration at 60 min [7, 11]: 500 ng/mL | concentration at 20 min [7, 12]: 6000 ng/mL | concentration at 20 min [7, 13]: 7200 ng/mL | concentration at 40 min [7, 12]: 21800 ng/mL | concentration at 40 min [7, 13]: 32100 ng/mL | concentration at 60 min [7, 12]: 5300 ng/mL | concentration at 60 min [7, 13]: 5800 ng/mL | c in the serum 1st analysis ([7]; time of sample collection 0): 45.4 µg/mL | c in the serum 2nd analysis ([7]; time of sample collection 0): 67.5 µg/mL | c in the serum 1st analysis ([7]; time of sample collection 10): 12.4 µg/mL | c in the serum 2nd analysis ([7]; time of sample collection 10): 14.3 µg/mL | c in the serum 1st analysis ([7]; time of sample collection 30): 2.7 µg/mL | c in the serum 2nd analysis ([7]; time of sample collection 30): 2.6 µg/mL

N=C(N)Nc1ccc(CNC(=O)CNC(=O)C(CO)NS(=O)(=O)Cc2cccc(Cl)c2)cc1 (stereo not drawn) [WX-C318, 3-Chlorobenzyl-sulfonyl-(D)-Ser-Gly-(4-guanidinobenzyl)amide hydrochloride]
Ki [1, 8]: 47 nM | Ki ([1]; read-out: Ki uPA): 47 nM | Ki [1, 9]: 47 nM | Ki Plasmin [2]: no inh. at 100 μM *) | Ki Plasmin ([2]; summary table): no inh. at 100 μM *) | Ki Thrombin [3]: no inh. at 100 μM *) | Ki Thrombin ([3]; summary table): no inh. at 100 μM *) | Ki [4]: 36000 nM | Ki [5]: 176000 nM | % amount in the basolateral compartment ([6]; first value column): 0.4% | % amount in the basolateral compartment ([6]; second value column): 1.0% | % amount in the basolateral compartment ([6]; third value column): 4.5% | Caco-2 assay % basolateral ([6]; first series, first value): 0.4% | Caco-2 assay % basolateral ([6]; first series, second value): 1.0% | Caco-2 assay % basolateral ([6]; first series, third value): 4.5% | Caco-2 assay % basolateral ([6]; second series, first value): 0.2% | Caco-2 assay % basolateral ([6]; second series, second value): 0.6% | Caco-2 assay % basolateral ([6]; second series, third value): 7.0% | concentration at 20 min [7, 10]: 100 ng/mL | concentration at 20 min [7, 11]: 200 ng/mL | concentration at 40 min [7, 11]: 50 ng/mL | concentration at 60 min [7, 10]: 200 ng/mL | concentration at 60 min [7, 11]: 200 ng/mL | concentration at 20 min [7, 12]: 100000 ng/mL | concentration at 20 min [7, 13]: 82600 ng/mL | concentration at 40 min [7, 12]: 5400 ng/mL | concentration at 40 min [7, 13]: 6200 ng/mL | concentration at 60 min [7, 12]: 7500 ng/mL | concentration at 60 min [7, 13]: 7700 ng/mL | c in the serum 2nd analysis ([7]; time of sample collection 0): 48.4 µg/mL | c in the serum 1st analysis ([7]; time of sample collection 10): 4.3 µg/mL | c in the serum 2nd analysis ([7]; time of sample collection 10): 5.5 µg/mL | c in the serum 1st analysis ([7]; time of sample collection 30): 0.7 µg/mL | c in the serum 2nd analysis ([7]; time of sample collection 30): 1.4 µg/mL

C[C@H](NC(=O)C(CO)NS(=O)(=O)Cc1ccccc1)C(=O)NCc1ccc(NC(=N)N)cc1 (stereo partly drawn) [WX-532, Benzylsulfonyl-(D)-Ser-Ala-(4-guanidinobenzyl)amide hydrochloride]
Ki [1, 8]: 16 nM | Ki ([1]; read-out: Ki uPA): 16 nM | Ki [1, 9]: 16 nM | Ki [2]: 40000 nM | Ki Thrombin [3]: no inh. at 100 μM *) | Ki Thrombin ([3]; summary table): no inh. at 100 μM *) | Ki [5]: 49000 nM | % amount in the basolateral compartment ([6]; first value column): 0% | % amount in the basolateral compartment ([6]; second value column): 0% | % amount in the basolateral compartment ([6]; third value column): 0% | Caco-2 assay % basolateral ([6]; first series, first value): 0/0/0% | Caco-2 assay % basolateral ([6]; first series, second value): 0/0/0% | Caco-2 assay % basolateral ([6]; first series, third value): 0/0/0% | concentration at 20 min [7, 10]: 1500 ng/mL | concentration at 40 min [7, 10]: 10900 ng/mL | concentration at 60 min [7, 10]: 900 ng/mL | concentration at 20 min [7, 12]: 5800 ng/mL | concentration at 20 min [7, 13]: 6700 ng/mL | concentration at 40 min [7, 12]: 2900 ng/mL | concentration at 40 min [7, 13]: 3300 ng/mL | concentration at 60 min [7, 12]: 12800 ng/mL | concentration at 60 min [7, 13]: 15000 ng/mL | c in the serum 1st analysis ([7]; time of sample collection 0): 61.7 µg/mL | c in the serum 2nd analysis ([7]; time of sample collection 0): 68.8 µg/mL | c in the serum 1st analysis ([7]; time of sample collection 10): 3.8 µg/mL | c in the serum 2nd analysis ([7]; time of sample collection 10): 3.5 µg/mL | c in the serum 1st analysis ([7]; time of sample collection 30): 11.4 µg/mL | c in the serum 2nd analysis ([7]; time of sample collection 30): 11.2 µg/mL
